Reference: PMC7060258 (Scientific Reports, 2020)
No end group written: not given here.

Legend:
trypsin [1] = assay: SPR interaction with trypsin; type: binding; details: for SPR binding to trypsin (in words): peptide immobilized on CM4 chip; for ka, association rate constant / kd, dissociation rate constant: protease 1 nM to 5 μM; for Kd: read-out: KD, dissociation constant
Description: (§1) The interaction of the peptides with serine proteinases (trypsin, α-chymotrypsin, human neutrophil elastase, pancreatic kallikrein and cathepsin G) was studied using the surface plasmon resonance (SPR) method. The peptides were immobilized on a CM4 sensor chip. […] Kinetic parameters were calculated at 25 °C. Obtained data indicated the formation of tight complexes and eliminated non-specific binding (Table 2).
(§2) The study of the interaction of serine proteinases with rHCIQ2c1 and rHCIQ4c7 was performed on SPR biosensor Biacore 3000 (GE Healthcare, USA) running under the program “Biacore 3000 Control Software v.1.0”. The evaluation of data was carried out using “Biacore Evaluation v.4.1”. Peptides were covalent immobilized on carboxymethylated surface of the Biacore CM4 sensor chip (GE Healthcare, USA) activated by EDC/NHS (N-hydroxysuccinimide/1-ethyl-3-(3-dimethylaminopropyl)carbodiimide hydrochloride) mixture by the injection of peptide solution (100 µg/ml) in 10 mM sodium acetate (pH 5.5) during 10 min with flow rate 5 µl/min. Quantities of immobilized peptides were 970 RU (resonance units, 1 RU corresponds 1 pg peptide) for rHCIQ2c1 and 460 RU for rHCIQ4c7. In all of the experiments, the flow cell 1 (Fc1) without the immobilized polypeptides was considered as the reference cell for the correction of the signal responses. HBS (HEPES buffered saline-NaCl): 0.15 M NaCl, 0.01 M HEPES, pH 7.4 (cat. no. BR-1003-69, GE Healthcare, USA) was used as the running buffer for the SPR assays. Protease solutions at concentrations from 1 nM to 5 μM were passed through measuring and control biosensor cells at 25 °C during 5 min with a flow rate 5 µl/min. Further complex breakdown was recorded during at most 10 min. After each cycle of SPR measurement, the sensing surface was regenerated by the injection of 50 mM NaOH for 0.5 min at a flow rate of 50 μl/min. Changes in Gibbs free energy (ΔG) at 25 °C were calculated by the following equation:1 ΔG=RTlnKD, where KD is the dissociation constant. Changes in enthalpy (ΔH) and entropic term (−TΔS) were calculated from the linear equation:2 ΔG=ΔH−TΔS, using the liner approximation of temperature dependence of ΔG (Van’t Hoff diagram).

[2] = system: human neutrophil elastase; assay: SPR interaction with neutrophil elastase; type: binding; details: for SPR binding to neutrophil elastase (in words): peptide immobilized on CM4 chip; for ka, association rate constant / kd, dissociation rate constant: protease 1 nM to 5 μM
Description: as §1, §2

rKv1.2 = assay: Two-electrode voltage clamp, rKv1.2 in X. laevis oocytes; type: cell-based; details: 10 μM, 18–22 °C, n ≥ 3
Description: (§3) For the expression of the voltage-gated potassium channels (rKv1.1, rKv1.2, hKv1.3, rKv1.4, rKv1.5, rKv1.6, Shaker IR and hERG) in X. laevis oocytes, the linearized plasmids were transcribed using the T7 or SP6 mMESSAGE-mMACHINE transcription kit (Ambion, USA). The harvesting of stage V–VI oocytes from an anaesthetized female X. laevis frog was previously described. Oocytes were injected with 50 nl of cRNA at a concentration of 1 ng/nl using a micro-injector (Drummond Scientific, USA). The oocytes were incubated in a solution containing (in mM): NaCl, 96; KCl, 2; CaCl2, 1.8; MgCl2, 2; HEPES, 5 (pH 7.4), supplemented with 50 mg/l gentamycin sulfate.
(§4) Two-electrode voltage-clamp recordings were performed at room temperature (18–22 °C) using a Geneclamp 500 amplifier (Molecular Devices, USA) controlled by a pClamp data acquisition system (Axon Instruments, USA), as described in[47]. Whole cell currents from oocytes were recorded 1–4 days after injection. Bath solution composition was ND96 (in mM): NaCl, 96; KCl, 2; CaCl2, 1.8; MgCl2, 2 and HEPES, 5 (pH 7.4). Voltage and current electrodes were filled with 3 M KCl. The resistances of both electrodes were kept between 0.7 and 1.5 MΩ. […] All data were analysed using pClamp Clampfit 10.0 (Molecular Devices, Downingtown, PA, USA) and Origin 7.5 software (Originlab, Northampton, MA, USA).

trypsin [3] = assay: Thermodynamic parameters of complexes with trypsin; type: binding; details: complex with trypsin, SPR
Description: (§5) The magnitudes of free energy change (∆G) of the complexes differed slightly from the same complexes of HCRG1 and HCRG2 and were lower than for the InhVJ ones.
The study of the interaction of serine proteinases with rHCIQ2c1 and rHCIQ4c7 was performed on SPR biosensor Biacore 3000 (GE Healthcare, USA) running under the program “Biacore 3000 Control Software v.1.0”. The evaluation of data was carried out using “Biacore Evaluation v.4.1”. Peptides were covalent immobilized on carboxymethylated surface of the Biacore CM4 sensor chip (GE Healthcare, USA) activated by EDC/NHS (N-hydroxysuccinimide/1-ethyl-3-(3-dimethylaminopropyl)carbodiimide hydrochloride) mixture by the injection of peptide solution (100 µg/ml) in 10 mM sodium acetate (pH 5.5) during 10 min with flow rate 5 µl/min. Quantities of immobilized peptides were 970 RU (resonance units, 1 RU corresponds 1 pg peptide) for rHCIQ2c1 and 460 RU for rHCIQ4c7. In all of the experiments, the flow cell 1 (Fc1) without the immobilized polypeptides was considered as the reference cell for the correction of the signal responses. […] Further complex breakdown was recorded during at most 10 min. […] Changes in enthalpy (ΔH) and entropic term (−TΔS) were calculated from the linear equation:2 ΔG=ΔH−TΔS, using the liner approximation of temperature dependence of ΔG (Van’t Hoff diagram).

α-chymotrypsin = assay: Thermodynamic parameters of complexes with α-chymotrypsin; type: binding; details: complex with α-chymotrypsin, SPR
Description: as §5, §2

rKv1.4 = assay: Two-electrode voltage clamp, rKv1.4 in X. laevis oocytes; type: cell-based; details: 10 μM, 18–22 °C, n ≥ 3
Description: as §3, §4

trypsin [4] = assay: Trypsin inhibitory activity (BAPNA, Dixon); type: biochemical; details: BAPNA 0.6 and 1.2 mM, Dixon method; trypsin 208 nM; peptide 0–26.6 µM (rHCIQ2c1), 0–24 µM (rHCIQ4c7); three parallel experiments; error limits 0.1–0.5%
Description: The trypsin inhibitory activity of HCIQ peptides was estimated according to the standard procedure using N-α-benzoyl-D,L-arginine p-nitroanilide (BAPNA) as a substrate. The trypsin inhibition constants of rHCIQ2c1 and rHCIQ4c7 were determined by the method of Dixon[74] using substrate (BAPNA) concentrations of 0.6 and 1.2 mM. The trypsin concentration in the reaction mixture was 208 nM. The range of peptide concentrations was 0–26.6 µM for rHCIQ2c1 and 0–24 µM for rHCIQ4c7. The constants (Ki) were calculated based on the results of three parallel experiments. Computational error limits were in the range of 0.1–0.5%.

[5] = trypsin, SPR Biacore 3000, peptide immobilized on CM4 chip, HBS pH 7.4, 25 °C
[6] = neutrophil elastase, SPR Biacore 3000, peptide immobilized on CM4 chip, HBS pH 7.4, 25 °C

Substance	SPR binding to trypsin (in words) (trypsin [1]; SPR)	ka, association rate constant (trypsin [1]; [5]) [s/M]	kd, dissociation rate constant (trypsin [1]; [5]) [s⁻¹]	Kd (trypsin [1]; [5]) [nM]	SPR binding to neutrophil elastase (in words) ([2]; SPR)	KA, association constant [2, 6] [M⁻¹]	ka, association rate constant [2, 6] [s/M]	kd, dissociation rate constant [2, 6] [s⁻¹]	Activity on Kv1.2 (rKv1.2)	∆H, enthalpy change (trypsin [3]; 10–40 °С, Van't Hoff diagram) [kcal/mol]	∆G, Gibbs energy change (trypsin [3]; 25 °C, ΔG=RTlnKD)	T∆S, entropic term (α-chymotrypsin; 10–40 °С, Van't Hoff diagram) [kcal/mol]	∆H, enthalpy change (α-chymotrypsin; 10–40 °С, Van't Hoff diagram) [kcal/mol]	∆G, Gibbs energy change (α-chymotrypsin; 25 °C, ΔG=RTlnKD)	Activity on Kv1.4 (rKv1.4)	KD with trypsin relative to rHCIQ2c1 (trypsin [1]; SPR, 25 °C)	KA, association constant (trypsin [1]; [5]) [M⁻¹]	KD with elastase relative to rHCIQ2c1 ([2]; SPR, 25 °C)	Kd ([2]; neutrophil elastase, SPR Biacore 3000, peptide immobilized on CM4 chip, HBS pH 7.4, 25 °C, read-out: KD, dissociation constant) [nM]	Ki (trypsin [4]) [nM]
rHCIQ2c1: recombinant Kunitz-peptide of Heteractis crispa, most prevalent isoform, mature peptide 58 aa, expressed in E. coli (IQGNICSEPKKVGRCRGSFPRFYFDSETGKCTPFIYGGCGGNGNNFETLHACRAICRA; ends and bridges not checked; cysteine pairing not given here)	specifically binds to all target proteinases	20500	0.00817	0.251	specifically binds to all target proteinases	7.9e+06	68000	0.00861	neither 10 μM of rHCIQ2c1 nor rHCIQ4c7 exerted any activity on the Kv channels	17.28	–54.70 kJ/mol	15.12	4.68	–43.70 kJ/mol	neither 10 μM of rHCIQ2c1 nor rHCIQ4c7 exerted any activity on the Kv channels	–	–	–	–	–
rHCIQ4c7: recombinant Kunitz-peptide of Heteractis crispa, isoform with the rare substitution Gly17Glu	bounds to trypsin and elastase only	22500	0.00466	207	bounds to trypsin and elastase only	1.05e+06	11900	0.0114	neither 10 μM of rHCIQ2c1 nor rHCIQ4c7 exerted any activity on the Kv channels	–	–	–	–	–	neither 10 μM of rHCIQ2c1 nor rHCIQ4c7 exerted any activity on the Kv channels	higher by three orders than for rHCIQ2c1	4.83e+06	binding with elastase differed insignificantly	955	190
